Reference: ChEMBL document CHEMBL4837229 (Eur J Med Chem, 2021)
Calls of active or inactive are those of the source. The rule behind the calls is not given here.

Test system: not listed separately
Test: Stability of the compound in human plasma assessed as parent compound remaining measured after 10 mins
Type: ADME, cell-free
Details: read-out: Stabilty

| Compound | remaining at 10 min [%] |
| --- | --- |
| CCC(CC)O[C@@H]1C=C(C(=O)O)C[C@H](NC(=O)NN)[C@H]1NC(C)=O | 88.6 |

Test system: not listed separately
Test: in vitro
Details: mouse, liver microsomes

| Compound | half-life [min] |
| --- | --- |
| CCC(CC)O[C@@H]1C=C(C(=O)O)C[C@H](NC(=O)NN)[C@H]1NC(C)=O | 49.7 |

Test system: not listed separately
Test: Stability of the compound in human plasma assessed as parent compound remaining measured after 30 mins
Type: ADME, cell-free
Details: read-out: Stabilty

| Compound | remaining at 0.5 h [%] |
| --- | --- |
| CCC(CC)O[C@@H]1C=C(C(=O)O)C[C@H](NC(=O)NN)[C@H]1NC(C)=O | 98.8 |

Test system: not listed separately
Test: Stability of the compound in human plasma assessed as parent compound remaining measured after 120 mins
Type: ADME, cell-free
Details: read-out: Stabilty

| Compound | remaining at 2 h [%] |
| --- | --- |
| CCC(CC)O[C@@H]1C=C(C(=O)O)C[C@H](NC(=O)NN)[C@H]1NC(C)=O | 107 |

Biological target: not listed separately
Test: Inhibition of Influenza A virus (A/California/04/2009(H1N1)) Neuraminidase using MUNANA as substrate preincubated for 5 to 15 mins followed by substrate addition and measured after 30 mins by fluorescence spectrophotometric method
Details: not given

| Compound | IC50 [µM] |
| --- | --- |
| CCC(CC)O[C@@H]1C=C(C(=O)O)C[C@H](NC(N)=O)[C@H]1NC(C)=O | 0.0087 |
| CCC(CC)O[C@@H]1C=C(C(=O)O)C[C@H](NC(=O)NNC)[C@H]1NC(C)=O | 0.249 |
| CCC(CC)O[C@@H]1C=C(C(=O)O)C[C@H](NC(=O)NN)[C@H]1NC(C)=O | 0.0119 |
| CCCCNNC(=O)N[C@H]1CC(C(=O)O)=C[C@@H](OC(CC)CC)[C@@H]1NC(C)=O | 0.332 |

Test system: MDCK
Test: Cytotoxicity against MDCK cells assessed as reduction in cell viability at 250 uM
Type: cell-based, Canis lupus familiaris
Details: dog

| Compound | Activity |
| --- | --- |
| CCC(CC)O[C@@H]1C=C(C(=O)O)C[C@H](NC(=O)NN)[C@H]1NC(C)=O | Non-Toxic |

Test system: not listed separately
Test: Stability of the compound in human plasma assessed as parent compound remaining measured after 60 mins
Type: ADME, cell-free
Details: read-out: Stabilty

| Compound | remaining at 1 h [%] |
| --- | --- |
| CCC(CC)O[C@@H]1C=C(C(=O)O)C[C@H](NC(=O)NN)[C@H]1NC(C)=O | 99.5 |

Test system: not listed separately
Test: in vitro
Details: rat, liver microsomes

| Compound | half-life [min] |
| --- | --- |
| CCC(CC)O[C@@H]1C=C(C(=O)O)C[C@H](NC(=O)NN)[C@H]1NC(C)=O | 45.9 |

Test system: not listed separately
Test: in vitro
Details: human, liver microsomes

| Compound | half-life [min] |
| --- | --- |
| CCC(CC)O[C@@H]1C=C(C(=O)O)C[C@H](NC(=O)NN)[C@H]1NC(C)=O | 72.9 |

Test system: Influenza A virus
Test: microbe, parasite or virus in culture
Details: A/California/04/2009(H1N1), MDCK, 48 h

| Compound | EC50 [µM] |
| --- | --- |
| CCC(CC)O[C@@H]1C=C(C(=O)O)C[C@H](N)[C@H]1NC(C)=O [OSELTAMIVIR CARBOXYLATE] | 0.0014 |
| CCC(CC)O[C@@H]1C=C(C(=O)O)C[C@H](NC(=O)NN)[C@H]1NC(C)=O | 0.0078 |

Test system: Influenza A virus
Test: not given
Type: functional, organism-based
Details: A/California/04/2009(H1N1), MDCK, time 46.0 hrs

| Compound | Activity |
| --- | --- |
| CCC(CC)O[C@@H]1C=C(C(=O)O)C[C@H](NC(=O)NN)[C@H]1NC(C)=O | inactive |

Test system: not listed separately
Test: Stability of the compound in human plasma assessed as parent compound remaining measured immediately
Type: ADME, cell-free
Details: read-out: Stabilty

| Compound | remaining at 0 min [%] |
| --- | --- |
| CCC(CC)O[C@@H]1C=C(C(=O)O)C[C@H](NC(=O)NN)[C@H]1NC(C)=O | 100 |

Biological target: Neuraminidase (Influenza A virus, UniProt B4URF0)
Sequence (B4URF0 whole entry): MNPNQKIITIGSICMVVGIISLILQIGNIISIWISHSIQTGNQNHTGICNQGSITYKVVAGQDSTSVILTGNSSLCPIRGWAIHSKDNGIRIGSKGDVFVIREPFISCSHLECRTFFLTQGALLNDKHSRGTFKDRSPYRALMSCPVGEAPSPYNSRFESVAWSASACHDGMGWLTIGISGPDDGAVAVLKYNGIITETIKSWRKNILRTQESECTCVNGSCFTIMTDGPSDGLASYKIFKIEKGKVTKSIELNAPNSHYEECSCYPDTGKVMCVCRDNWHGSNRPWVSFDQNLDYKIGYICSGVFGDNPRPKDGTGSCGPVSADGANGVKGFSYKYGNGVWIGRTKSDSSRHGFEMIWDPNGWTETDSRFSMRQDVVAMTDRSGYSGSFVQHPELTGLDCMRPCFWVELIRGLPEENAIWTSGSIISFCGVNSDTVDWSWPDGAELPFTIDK
Test: not given
Design: species or system Influenza A virus (A/Anhui/1/2005(H5N1))
Details: not given

| Compound | IC50 [µM] |
| --- | --- |
| CCC(CC)O[C@@H]1C=C(C(=O)O)C[C@H](NC(=O)NNCCCc2ccccc2)[C@H]1NC(C)=O | 9.15 |
| CCC(CC)O[C@@H]1C=C(C(=O)O)C[C@H](NC(=O)NNCc2ccc(Cl)cc2)[C@H]1NC(C)=O | 0.875 |
| CCC(CC)O[C@@H]1C=C(C(=O)O)C[C@H](NC(=O)NNCC2CC2)[C@H]1NC(C)=O | 4.11 |
| CCC(CC)O[C@@H]1C=C(C(=O)O)C[C@H](NC(N)=O)[C@H]1NC(C)=O | 0.254 |
| CCCCCNNC(=O)N[C@H]1CC(C(=O)O)=C[C@@H](OC(CC)CC)[C@@H]1NC(C)=O | 1.1 |
| CCC(CC)O[C@@H]1C=C(C(=O)O)C[C@H](NC(=O)NNCc2ccccc2Cl)[C@H]1NC(C)=O | 0.586 |
| CCCCCCCCNNC(=O)N[C@H]1CC(C(=O)O)=C[C@@H](OC(CC)CC)[C@@H]1NC(C)=O | > 10 |
| CCC(CC)O[C@@H]1C=C(C(=O)O)C[C@H](NC(=O)NNCCc2ccccc2)[C@H]1NC(C)=O | 2.46 |
| CCC(CC)O[C@@H]1C=C(C(=O)O)C[C@H](NC(=O)NNCc2cccc(OC)c2)[C@H]1NC(C)=O | 0.326 |
| CCCCCCCNNC(=O)N[C@H]1CC(C(=O)O)=C[C@@H](OC(CC)CC)[C@@H]1NC(C)=O | 0.575 |
| CCC(CC)O[C@@H]1C=C(C(=O)O)C[C@H](NC(=O)NNCCC(C)C)[C@H]1NC(C)=O | 1.53 |
| CCC(CC)O[C@@H]1C=C(C(=O)O)C[C@H](NC(=O)NNCc2ccccc2)[C@H]1NC(C)=O | 4.35 |
| CCC(CC)O[C@@H]1C=C(C(=O)O)C[C@H](NC(=O)NNCc2cccc(Cl)c2)[C@H]1NC(C)=O | 5.85 |
| CCC(CC)O[C@@H]1C=C(C(=O)O)C[C@H](NC(=O)NNC2CCOCC2)[C@H]1NC(C)=O | 1.21 |
| CCNNC(=O)N[C@H]1CC(C(=O)O)=C[C@@H](OC(CC)CC)[C@@H]1NC(C)=O | 0.576 |
| CCC(CC)O[C@@H]1C=C(C(=O)O)C[C@H](NC(=O)NNCc2ccc(OC)cc2)[C@H]1NC(C)=O | 0.567 |
| CCCNNC(=O)N[C@H]1CC(C(=O)O)=C[C@@H](OC(CC)CC)[C@@H]1NC(C)=O | 0.241 |
| CCCCCCNNC(=O)N[C@H]1CC(C(=O)O)=C[C@@H](OC(CC)CC)[C@@H]1NC(C)=O | 4.98 |
| CCC(CC)O[C@@H]1C=C(C(=O)O)C[C@H](NC(=O)NN)[C@H]1NC(C)=O | 0.0268 |
| CCC(CC)O[C@@H]1C=C(C(=O)O)C[C@H](NC(=O)NNCc2ccccc2OC)[C@H]1NC(C)=O | 2.77 |
| CCC(CC)O[C@@H]1C=C(C(=O)O)C[C@H](NC(=O)NNCC(C)C)[C@H]1NC(C)=O | 2.32 |
| CCCCNNC(=O)N[C@H]1CC(C(=O)O)=C[C@@H](OC(CC)CC)[C@@H]1NC(C)=O | 0.0383 |
| CCC(CC)O[C@@H]1C=C(C(=O)O)C[C@H](NC(=O)NNC/C=C/c2ccccc2)[C@H]1NC(C)=O | 7.85 |
